The results in this text go back to patent US20130005811A1, “ANTIMICROBIAL TREATMENT FOR SEEDS AND SPROUTS” (priority 2010, published 2013).

In this test the test system is S. typhimurium DT 104. The test can be described thus: Salmonella on alfalfa seeds with an initial inoculum of 10^4 CFU/g. It is filed as cell-based, Salmonella typhimurium DT104. As for the experimental part: Five isolates of Escherichia coli O157:H7, including strain 932 (human isolate), E009 (beef isolate), E0018 (cattle isolate), E0122 (cattle isolate), E0139 (deer jerky isolate); and five isolates of Salmonella typhimurium DT104, including strain H2662 (cattle isolate), 11942A (cattle isolate), 13068A (cattle isolate), 152N17-1 (dairy isolate) and H3279 (human isolate) were used. Nalidixic acid-resistant (50 μg/ml) E. coli O157:H7 were used to facilitate enumeration. Each E. coli O157:H7 and Salmonella strain was grown in tryptic soy broth (TSB, Beckon Dickinson, Sparks, Md.) at 37° C. for 18 hr. Approximately equal cell numbers of each of the five strains were combined and used as a 5-strain mixture with cell numbers being adjusted by spectrophotometric (Spectronic Instruments, Rochester, N.Y.) determination as described in Zhao et al., (2009) J. Food Prot. 72: 928-936, incorporated herein by reference in its entirety. Bacterial cell numbers were confirmed by plating 0.1 ml of serial dilutions (1:10) in 0.1% peptone on tryptic soy agar (TSA, Beckon Dickinson) and Sorbitol MacConkey agar (SMA, Oxoid, Hampshire, UK) for E. coli O157:H7, and TSA and XLD agar (Beckon Dickinson) for Salmonella and incubating all plates at 37° C. for 24 hr, after which colonies were counted.
Levulinic acid (0.5%) and 0.05% sodium dodecyl sulfate (SDS) obtained from Sigma-Aldrich (St. Louis, Mo.) were tested in combination at 21±2° C. for their antimicrobial activity to E. coli O157:H7 and S. typhimurium on alfalfa seeds as a wash treatment. Calcium hypochlorite (Arch Chemicals, Smyrna, Ga.) at 20,000 μg/ml (ppm) was used as the positive control, and deionized water was used as the negative control.
Before each trial, 25 ml of sterile tap water and 25 g of alfalfa seeds were added to a WHIRL-PAK® bag (Nasco, Fort Atkinson, Wis.) and pummeled in a stomacher blender at 150 rpm for 1 min. Duplicate 0.1 ml portions of the contents were plated on SMA, XLD, and TSA plates to detect E. coli O157:H7 and Salmonella, and enumerate aerobic bacteria counts according to the protocols described below. Only E. coli O157:H7-negative and Salmonella-negative alfalfa seeds were used. Dry seeds (50 g) were individually placed in a sterilized glass beaker (1 L) and 5 ml of a mixture of E. coli O157:H7 or S. typhimurium DT 104 (high inocula at 10^8-10^9 CFU/ml and low inocula at 10^3-10^4 CFU/ml) was inoculated on the surface of the seeds in each glass beaker under a laminar flow hood. A sterile plastic spoon was used to mix for 2 min the seeds with bacterial suspension. […]
Inactivation of E. coli O157:H7 and Salmonella on Alfalfa Seeds: Inoculated, dried alfalfa seeds (50 g samples) were placed in a 1000 ml glass beaker containing 200 ml of treatment solution and agitated by a magnetic stir bar at 150 ppm at 21° C. for 0, 1, 2, 5, 10, 20, 30, and 60 min. Following treatment, 25 g of seeds was placed in a stomacher bag containing 25 ml 0.1M phosphate buffer, pH 7.2 (PBS) for levulinic acid plus SDS-treated seeds or neutralizing buffer ([…], Ltd., Worthing, England). The suspension was serially (1:10) diluted in 0.1% peptone water and 0.1 ml of each dilution was surface-plated in duplicate onto TSA and Sorbitol MacConkey agar containing 50 μg nalidixic acid/ml (TSA-NA and SMA-NA) for E. coli O157:H7, and on TSA and XLD containing ampicillin (32 μg/ml), tetracycline (16 μg/ml) and streptomycin (64 μg/ml) (TSA+ and XLD+) for S. typhimurium DT 104. All plates were incubated at 37° C. for 48 hr.

Setting [1] is: dried at 21° C. for 2 hr, treated for 20 min (10 min in beaker and 10 min in a stomacher bag) at 21° C.

In the case of `[Ca+2].[O-]Cl.[O-]Cl` [20,000 ppm, Ca(OCl)2, pH 11.4, Calcium hypochlorite], the “Salmonella on treated seeds by direct plating method” value (10 min in glass beaker then pummeled 10 min in stomacher bag) is recorded as “negative”. Besides, under setting [1], the “S. typhimurium DT 104 count in sample No. 1-10 (seeds)” value is reported as “−” and the “S. typhimurium DT 104 count in sample No. 1-10 (treated supernatant)” value is given as “−”. Also, the “Salmonella in solutions used for treatment” value (enrichment culture after use) is on record as “negative”. For the same compound, under “none pathogen-positive by direct plating”, the “Salmonella detection in samples treated for 10 min” value is “sporadically positive by enrichment culture assay”.
